Measured values reported in patent US20250340569A1, “INHIBITORS OF KIF18A AND USES THEREOF” (Insilico Medicine IP Limited, priority 2023, published 2025).
pIC50: −log10 of the molar value.

System: OVCAR-3
Assay: OVCAR3 CTG assay
Type: cell-based
Settings: CellTiter-Glo, 6 days incubation
Description: Example B2: OVCAR3 CTG Assay
• a) Preparation of complete medium: Added FBS and appropriate additives according to the information sheet provided by the vendor. Mix gently. • b) Checked the cell name and complete medium and passage number marked on the flask. For adherent cell lines, refer to c to k. For suspension cell lines, refer to g to k. • c) Removed and discarded culture medium using a vacuum pump. • d) Briefly rinsed the cell layer with 0.25% (w/v) Trypsin-0.038% (w/v) EDTA solution to remove all traces of serum that contains trypsin inhibitor. • e) Added 3.0 ml of Trypsin-EDTA solution to flask and observed cells under an inverted microscope until cell layer is dispersed. • f) Added 9.0 ml of complete growth medium and aspirated cells by gently pipetting. • g) Transfered the cell suspension to a centrifuge tube and centrifuged at 1000 rpm for 4 minutes. • h) Discarded the supernatant using a vacuum pump. • i) Added appropriate volume of complete medium. Suspended the cell pellet by gently pipetting. • j) Counted the cell numbers with Vi-cell XR and adjusted cells to appropriate density. • k) Added 190 μL of cell suspension to 96-well opaque-walled clear bottom plates according to the planned plate layout and placed the plates in the CO2 incubator overnight.
2) Compound Stock Preparation:
• a) Plate preparation of testing articles:
The compounds were dissolved in DMSO to prepare 10 mM stock solution. The start working concentration (2 mM) was prepared with DMSO.
b) Staurosporine Plate Preparation:
0.4 mM Staurosporine was prepared in DMSO at working concentration.
The 20× compound containing medium was prepared according to the plate map. 10 μL of 20× compound containing medium was added into each well of the assay plates. Centrifuged at 1000 rpm for 1 minute. The total dilution was 200-fold.
3) Cells were Incubated with the Compounds for 6 Days at 5% CO2, 37° C.
Assay Measurement for CTG Assay
1) Preparation of Reagents
• a) Thawed the CellTiter-Glo buffer and equilibrated to room temperature prior to use. • b) Equilibrated the lyophilized CellTiter-Glo substrate to room temperature prior to use. • c) Transfered the appropriate volume of CellTiter-Glo buffer into the amber bottle containing CellTiter-Glo substrate to reconstitute the lyophilized enzyme/substrate mixture. This formed the CellTiter-Glo reagent. • d) Mixed by gently vortexing, swirling or by inverting the contents to obtain a homogeneous solution. The CellTiter-Glo substrate went into solution easily in less than one minute.
• a) Observed the cell morphology under an inverted microscope after corresponding treatment. • b) Equilibrated the plate and its contents to room temperature for approximately 30 minutes. • c) Added 100 μL of CellTiter-Glo reagent to the assay plate by Multidrop Combi instrument. • d) Mixed contents for 10 minutes on an orbital shaker to induce cell lysis. • e) Allowed the plate to incubate at room temperature for 10 minutes to stabilize luminescent signal. • f) Pasted the clear bottom with white back seal and record luminescence with Envision. The settings should be: Luminescence, measurement time 0.1 s.

SMILES | pIC50 (Homo sapiens, OVCAR-3, 144 h) | pIC50
CO[C@@H]1CNc2cccc(n2)NC(=O)c2ccc(NS(=O)(=O)CCO)cc2N2CCC(C(F)(F)F)(CC2)COC1 [EX78-A] | 7.00 to 8.00 | 
C[C@@H]1CCCC2(C(F)(F)F)CCN(CC2)c2cc(NS(=O)(=O)CCO)ccc2C(=O)Nc2cccc(n2)NC1 [EX79-A] | 7.00 to 8.00 | 
[2H]C([2H])([2H])N1CCCOCC2(C(F)(F)F)CCN(CC2)c2cc(NS(=O)(=O)CCO)ccc2C(=O)Nc2ccc(F)c1n2 [EX61] | 7.00 to 8.00 | 
Cc1cc2nc(n1)N1CCO[C@@H](CCCC3(C(F)(F)F)CCN(CC3)c3cc(NS(=O)(=O)CCO)ccc3C(=O)N2)C1 [EX111-B] | 7.00 to 8.00 | 
CN1CCCOCC2(C(F)(F)F)CCN(CC2)c2cc(NS(=O)(=O)CCO)ccc2C(=O)Nc2cncc1n2 [EX75] | 6.00 to 7.00 | 
O=C1Nc2ccc(=O)n(n2)CCCCCCC2(C(F)(F)F)CCN(CC2)c2cc(NS(=O)(=O)CCO)ccc21 [EX64] | 7.00 to 8.00 | 
[2H]C([2H])([2H])N1CCCOCC2(C(F)(F)F)CCN(CC2)c2cc(S(=O)(=O)NCCO)ccc2C(=O)Nc2cccc1n2 [EX70] | 7.00 to 8.00 | 
CCS(=O)(=O)Nc1cc2c(cn1)C(=O)Nc1cccc(n1)NC[C@@H](C)CCCC1(C(F)(F)F)CCN2CC1 [EX101-B] | > 8.00 | 
Cc1cc2nc(n1)N(C)CCCOCC1(C(F)(F)F)CCN(CC1)c1cc(S(=O)(=O)NC(C)(C)C)ccc1C(=O)N2 [EX30] | 7.00 to 8.00 | 
O=C1Nc2cccc(n2)NCCCCCC2(C(F)(F)F)CCN(CC2)c2cc(NS(=O)(=O)CCO)ccc21 [EX103] | > 8.00 | 
Cc1cc2nc(n1)N(C)CCCOCC1(C3CC3)CCN(CC1)c1cc(NS(=O)(=O)CCO)ccc1C(=O)N2 [EX41] | 6.00 to 7.00 | 
C[C@H]1CNc2nc(ccc2F)NC(=O)c2ccc(NS(=O)(=O)CCO)cc2N2CCC(C(F)(F)F)(CC2)COC1 [EX76-A] | > 8.00 | 
CN1CCCOCC2(C(F)(F)F)CCN(CC2)c2cc(NS(=O)(=O)CCO)ccc2C(=O)Nc2cc(Cl)nc1n2 [EX94] | 6.00 to 7.00 | 
[2H]C([2H])([2H])N1CCCOCC2(C(F)(F)F)CCN(CC2)c2cc(NS(=O)(=O)CCO)ccc2C(=O)Nc2cc(C)nc1n2 [EX44] | 7.00 to 8.00 | 
Cc1cc2nc(n1)NCC(F)(F)COCC1(C)CCN(CC1)c1cc(NS(=O)(=O)CCO)ccc1C(=O)N2 [EX28] | 7.00 to 8.00 | 
C[C@@H]1COCC2(C(F)(F)F)CCN(CC2)c2cc(NS(=O)(=O)CCO)ccc2C(=O)Nc2cccc(n2)CO1 [EX84-B] | 7.00 to 8.00 | 
CN1CCCCCC2(C(F)(F)F)CCN(CC2)c2cc(NS(=O)(=O)CCO)ncc2C(=O)Nc2cccc1n2 [EX89] | 7.00 to 8.00 | 
CCS(=O)(=O)Nc1cc2c(cn1)C(=O)Nc1cccc(n1)N(C)CCCCCC1(C(F)(F)F)CCN2CC1 [EX98] | 6.00 to 7.00 | 
Cc1cc2nc(n1)N1CCO[C@H](CCCC3(C(F)(F)F)CCN(CC3)c3cc(NS(=O)(=O)CCO)ccc3C(=O)N2)C1 [EX111-A] | 6.00 to 7.00 | 

SMILES | pIC50 (Homo sapiens, OVCAR-3, 144 h) | pIC50
C/C1=C/CNc2cccc(n2)NC(=O)c2ccc(NS(=O)(=O)CCO)cc2N2CCC(C(F)(F)F)(CC2)COC1 [EX77] | 6.00 to 7.00 | 
Cc1cc2nc(n1)N1CCO[C@@H](COCC3(C(F)(F)F)CCN(CC3)c3cc(NS(=O)(=O)CCO)ccc3C(=O)N2)C1 (stereo in doubt) [EX96-B] | 7.00 to 8.00 | 
CCS(=O)(=O)Nc1ccc2c(c1)N1CCC(C(F)(F)F)(CC1)COC[C@@H](C)CNc1cccc(n1)NC2=O [EX88-A] | 7.00 to 8.00 | 
CN1CCCCCC2(C(F)(F)F)CCN(CC2)c2cc(NS(=O)(=O)CCO)c(F)cc2C(=O)Nc2cccc1n2 [EX104] | 7.00 to 8.00 | 
C[C@H]1CCCC2(C(F)F)CCN(CC2)c2cc(NS(=O)(=O)CCO)ccc2C(=O)Nc2cccc(n2)NC1 [EX102-B] | > 8.00 | 
C[C@@H]1CNc2nc(ccc2F)NC(=O)c2ccc(NS(=O)(=O)CCO)cc2N2CCC(C(F)(F)F)(CC2)COC1 [EX76-B] | 7.00 to 8.00 | 
[2H]C([2H])([2H])N1CCCOCC2(C(F)(F)F)CCN(CC2)c2cc(S(=O)(=O)NC(C)(C)C)ccc2C(=O)Nc2cccc1n2 [EX69] | 7.00 to 8.00 | 
O=C1Nc2cccc(n2)N2CCO[C@@H](COCC3(C(F)(F)F)CCN(CC3)c3cc(NS(=O)(=O)CCO)ncc31)C2 (stereo in doubt) [EX92-B] | > 8.00 | 
Cc1cc2nc(n1)NCCCOCC1(C)CCN(CC1)c1nc(NC(C)(C)CO)ccc1C(=O)N2 [EX29] | 6.00 to 7.00 | 
Cc1cc2nc(n1)NC1CC(C1)OCC1(C(F)(F)F)CCN(CC1)c1cc(NS(=O)(=O)CCO)ccc1C(=O)N2 [EX54] |  | 7.00 to 8.00
CN1CCCOCC2(C(F)(F)F)CCN(CC2)c2cc(NS(=O)(=O)CCO)ccc2C(=O)Nc2cc(Cl)cc1n2 [EX99] | 6.00 to 7.00 | 
CCS(=O)(=O)Nc1cc2c(cn1)C(=O)Nc1cccc(n1)NC[C@H](C)CCCC1(C(F)(F)F)CCN2CC1 [EX101-A] | 7.00 to 8.00 | 
O=C1Nc2cccc(n2)NC/C=C\COCC2(C(F)(F)F)CCN(CC2)c2cc(NS(=O)(=O)CCO)ccc21 [EX66] | 7.00 to 8.00 | 
O=C1Nc2ccnc(n2)N2CCO[C@@H](COCC3(C(F)(F)F)CCN(CC3)c3cc(NS(=O)(=O)CCO)ccc31)C2 [EX93-B] | 7.00 to 8.00 | 
CC1CNc2cccc(n2)NC(=O)c2ccc(NS(=O)(=O)CCO)cc2N2CCC(C(F)(F)F)(CC2)COC1 (centres unmarked) [EX56] | 7.00 to 8.00 | 
CO[C@@H]1CNc2nc(C)cc(n2)NC(=O)c2ccc(NS(=O)(=O)CCO)cc2N2CCC(C(F)(F)F)(CC2)COC1 [EX46-B] | 7.00 to 8.00 | 
O=C1NCCOCC2(C(F)(F)F)CCN(CC2)c2cc(NS(=O)(=O)CCO)ccc2C(=O)Nc2cccc1n2 [EX49] | 6.00 to 7.00 | 
C[C@H]1COCC2(C(F)(F)F)CCN(CC2)c2cc(NS(=O)(=O)CCO)ccc2C(=O)Nc2cccc(n2)CO1 [EX84-A] | 7.00 to 8.00 | 
O=C1Nc2cccc(n2)NCCC/C=C/C2(C(F)(F)F)CCN(CC2)c2cc(NS(=O)(=O)CCO)ccc21 [EX83] | 7.00 to 8.00 | 

SMILES | pIC50 (Homo sapiens, OVCAR-3, 144 h) | pIC50
CN1CC(F)(F)COCC2(C(F)(F)F)CCN(CC2)c2cc(NS(=O)(=O)CCO)ccc2C(=O)Nc2cccc1n2 [EX108] | 6.00 to 7.00 | 
C[C@H]1CCOCC2(C(F)(F)F)CCN(CC2)c2cc(NS(=O)(=O)CCO)ccc2C(=O)Nc2cccc(n2)N1 [EX107-B] | 7.00 to 8.00 | 
CN1CCCOCC2(C(F)(F)F)CCN(CC2)c2cc(NS(=O)(=O)CCO)ccc2C(=O)Nc2nccc1n2 [EX87] | 5.00 to 6.00 | 
Cc1cc2nc(n1)N1CCC(F)(F)[C@H](CCCC3(C)CCN(CC3)c3cc(NS(=O)(=O)CCO)ccc3C(=O)N2)C1 [EX115-A] | 6.00 to 7.00 | 
O=C1Nc2cccc(n2)N2CCO[C@H](COCC3(C(F)(F)F)CCN(CC3)c3cc(NS(=O)(=O)CCO)ncc31)C2 [EX92-A] | 7.00 to 8.00 | 
CN1CCCOCC2(C(F)(F)F)CCN(CC2)c2cc(NS(=O)(=O)CCO)ccc2C(=O)Nc2cccc1n2 [EX62] | 7.00 to 8.00 | 
Cc1cc2nc(n1)NC1CC(C1)OCC1(C(F)(F)F)CCN(CC1)c1cc(NS(=O)(=O)CCO)ccc1C(=O)N2 [EX53] | 7.00 to 8.00 | 
O=C1Nc2ccnc(n2)N2CCO[C@H](COCC3(C(F)(F)F)CCN(CC3)c3cc(NS(=O)(=O)CCO)ccc31)C2 [EX93-A] | > 8.00 | 
O=C1Nc2cccc(n2)NCC(F)(F)COCC2(C(F)(F)F)CCN(CC2)c2cc(NS(=O)(=O)CCO)ccc21 [EX109] | 7.00 to 8.00 | 
Cc1cc2nc(n1)NC[C@@H](C(F)(F)F)COCC1(C)CCN(CC1)c1cc(NS(=O)(=O)CCO)ccc1C(=O)N2 [EX32-B] | 7.00 to 8.00 | 
O=C1Nc2ccc(=O)n(n2)CCCCCC2(C(F)(F)F)CCN(CC2)c2cc(NS(=O)(=O)CCO)ccc21 [EX65] | 6.00 to 7.00 | 
CN1CCC2(C(F)(F)F)CCN(CC2)c2cc(NS(=O)(=O)CCO)ccc2C(=O)Nc2cccc(n2)NCC1=O [EX80] | 5.00 to 6.00 | 
Cc1cc2nc(n1)NC[C@H](C(F)(F)F)COCC1(C)CCN(CC1)c1cc(NS(=O)(=O)CCO)ccc1C(=O)N2 [EX32-A] | 7.00 to 8.00 | 
C[C@@H]1CCCC2(C(F)(F)F)CCN(CC2)c2cc(NS(=O)(=O)CCO)c(F)cc2C(=O)Nc2cccc(n2)NC1 [EX105-A] | > 8.00 | 
CCS(=O)(=O)Nc1cc2c(cn1)C(=O)Nc1cccc(n1)N(C)CCCOCC1(C(F)(F)F)CCN2CC1 [EX97] | 7.00 to 8.00 | 
CN1CCCOCC2(C(F)F)CCN(CC2)c2cc(NS(=O)(=O)CCO)ccc2C(=O)Nc2cccc1n2 [EX110] | 7.00 to 8.00 | 
O=C1Nc2cccc(n2)N2CCO[C@H](COCC3(C(F)(F)F)CCN(CC3)c3cc(NS(=O)(=O)CCO)ccc31)C2 [EX81-B] | 7.00 to 8.00 | 
C[C@H]1C/C=C/C2(C(F)(F)F)CCN(CC2)c2cc(NS(=O)(=O)CCO)ccc2C(=O)Nc2cccc(n2)NC1 [EX85-B] | > 8.00 | 
